Results on 23 molecules are retold here after PubChem BioAssay AID338 (DTP/NCI, 2004).

Values joined by “and” are separate entries in the source; they are usually repeats but may differ in a detail not shown here. Identical values can stand only once. Toxic doses and inconclusive results are not listed.

This assay relates to BDF1 mice, P388 leukemia (terephthalanilide-resistant), survival T/C. Kind of assay: NCI In Vivo Anticancer Drug Screen. Data for tumor model P388 Leukemia resistant to A Terephthalanilide; NSC 38280 (intraperitoneal) in B6D2F1 (BDF1) mice. The conditions noted are these: endpoint: median survival time, higher = longer survival. As to the method:
The antitumor activity of compounds was measured in mice bearing transplantable tumors. Survival or tumor size were measured and the results are expressed as the measurement made in the treated group (T) divided by the measurement made in the vehicle treated control group (C). The tumor model used in this assay is P388 Leukemia resistant to A Terephthalanilide; NSC 38280 (intraperitoneal) in B6D2F1 (BDF1) mice

[1] abbreviates: dose: 20.0 mg/kg/injection, schedule: Q01DX010 (ip), vehicle: saline.
[2] abbreviates: dose: 40.0 mg/kg/injection, schedule: Q01DX010 (ip), vehicle: saline.
Where [3] appears, read: dose: 80.0 mg/kg/injection, schedule: Q01DX010 (ip), vehicle: saline.
[4] abbreviates: dose: 6.25 mg/kg/injection, schedule: Q01DX010 (ip), vehicle: saline.
The mark [5] stands for this setting: dose: 12.5 mg/kg/injection, schedule: Q01DX010 (ip), vehicle: saline.
The mark [6] stands for this setting: dose: 25.0 mg/kg/injection, schedule: Q01DX010 (ip), vehicle: saline.
Setting [7] is: dose: 54.0 mg/kg/injection, schedule: Q01DX010 (ip), vehicle: saline.
[8] abbreviates: dose: 27.0 mg/kg/injection, schedule: Q01DX010 (ip), vehicle: saline.
The mark [9] stands for this setting: dose: 90.0 mg/kg/injection, schedule: Q01DX010 (ip), vehicle: saline.
The mark [10] stands for this setting: dose: 62.5 mg/kg/injection, schedule: Q01DX010 (ip), vehicle: saline.
[11] abbreviates: dose: 125.0 mg/kg/injection, schedule: Q01DX010 (ip), vehicle: saline.
The mark [12] stands for this setting: dose: 250.0 mg/kg/injection, schedule: Q01DX010 (ip), vehicle: saline.
Where [13] appears, read: dose: 500.0 mg/kg/injection, schedule: Q01DX010 (ip), vehicle: saline.
Setting [14] is: dose: 2.0 mg/kg/injection, schedule: Q01DX010 (ip), vehicle: saline.
The mark [15] stands for this setting: dose: 4.0 mg/kg/injection, schedule: Q01DX010 (ip), vehicle: saline.
Setting [16] is: dose: 8.0 mg/kg/injection, schedule: Q01DX010 (ip), vehicle: saline.
The mark [17] stands for this setting: dose: 16.0 mg/kg/injection, schedule: Q01DX010 (ip), vehicle: saline.
The mark [18] stands for this setting: dose: 12.0 mg/kg/injection, schedule: Q01DX010 (ip), vehicle: saline.
Setting [19] is: dose: 18.0 mg/kg/injection, schedule: Q01DX010 (ip), vehicle: saline.
[20] abbreviates: dose: 3.13 mg/kg/injection, schedule: Q01DX010 (ip), vehicle: saline.

With `Cn1c(N)nc2nc[nH]c2c1=S`, the T/C under setting [1] was 100 % of control; the T/C under setting [2] is 100 % of control; the T/C under setting [3] is 95 % of control; the T/C (dose: 160.0 mg/kg/injection, schedule: Q01DX010 (ip), vehicle: saline) is 90 % of control.
As to `CS(=O)(=O)OCCCCOS(C)(=O)=O`, the T/C under setting [4] is 87 % of control and 100 % of control; the T/C under setting [5] is 100 % of control and 106 % of control; the T/C under setting [6] was 87 % of control and 100 % of control; the T/C (dose: 50.0 mg/kg/injection, schedule: Q01DX010 (ip), vehicle: saline) is 106 % of control.
On to `O=C(Nc1cccc(C(=O)Nc2ccc(C3=NCCN3)cc2)c1)c1ccc(C2=NCCN2)cc1`, for which the T/C under setting [7] was 117 % of control.
For `CN(N=O)C(=O)NC(C=O)C(O)C(O)C(O)CO` (stereo not drawn), the T/C runs as follows: under setting [8], 109 % of control; under setting [2], 113 % of control; (dose: 60.0 mg/kg/injection, schedule: Q01DX010 (ip), vehicle: saline) 154 % of control; under setting [9], 113 % of control.
For the molecule `OCC1OC(n2cnc3c(Cl)ncnc32)C(O)C1O` (stereo not drawn), the T/C was 94 % of control under setting [10]; 100 % of control under setting [11]; 90 % of control and 94 % of control under setting [12]; 90 % of control and 111 % of control under setting [13].
With `Nc1nc(=S)c2ncn(C3OC(CO)C(O)C3O)c2[nH]1` (stereo not drawn), the T/C runs as follows: under setting [14], 109 % of control; under setting [15], 104 % of control; under setting [16], 105 % of control; under setting [17], 105 % of control.
On to `O=C1CCC(N2C(=O)c3ccccc3C2=O)C(=O)N1` (stereo not drawn), for which the T/C (dose: 31.3 mg/kg/injection, schedule: Q01DX010 (ip), vehicle: saline) was 117 % of control; the T/C under setting [10] is 100 % of control and 117 % of control; the T/C under setting [11] was 100 % of control and 105 % of control; the T/C under setting [12] was 90 % of control and 94 % of control.
With `CN[C@H]1CCc2cc(OC)c(OC)c(OC)c2-c2ccc(OC)c(=O)cc21`, the T/C reads like this: (dose: 0.63 mg/kg/injection, schedule: Q01DX010 (ip), vehicle: other) 94 % of control and 110 % of control; (dose: 1.25 mg/kg/injection, schedule: Q01DX010 (ip), vehicle: other) 100 % of control and 110 % of control; (dose: 2.5 mg/kg/injection, schedule: Q01DX010 (ip), vehicle: other) 100 % of control and 120 % of control; (dose: 5.0 mg/kg/injection, schedule: Q01DX010 (ip), vehicle: other) 88 % of control and 115 % of control.
`CS(=O)(=O)OCCN(CCOS(C)(=O)=O)c1ccc(N=O)cc1`: the T/C (dose: 0.5 mg/kg/injection, schedule: Q01DX010 (ip), vehicle: saline) was 100 % of control; the T/C (dose: 1.0 mg/kg/injection, schedule: Q01DX010 (ip), vehicle: saline) was 109 % of control; the T/C under setting [14] was 109 % of control and 113 % of control.
With `CN(C)c1ccc(Nc2c3ccccc3nc3ccccc23)cc1`, the T/C runs as follows: under setting [17], 95 % of control; (dose: 24.0 mg/kg/injection, schedule: Q01DX010 (ip), vehicle: saline) 104 % of control; (dose: 36.0 mg/kg/injection, schedule: Q01DX010 (ip), vehicle: saline) 100 % of control and 104 % of control and 108 % of control; under setting [7], 95 % of control and 100 % of control and 104 % of control; under setting [3], 90 % of control and 109 % of control.
Consider `S=P(N1CC1)(N1CC1)N1CC1`, for which the T/C reads like this: (dose: 0.75 mg/kg/injection, schedule: Q01DX010 (ip), vehicle: saline) 112 % of control; (dose: 6.0 mg/kg/injection, schedule: Q01DX010 (ip), vehicle: saline) 162 % of control.
On to `CCCNC(=NC)c1ccc(NC(=O)c2ccc(C(=O)Nc3ccc(C(=NC)NCCC)cc3)cc2)cc1`, for which the T/C (dose: 5.2 mg/kg/injection, schedule: Q01DX010 (ip), vehicle: saline) is 100 % of control; the T/C under setting [16] is 100 % of control; the T/C under setting [18] is 111 % of control; the T/C under setting [19] is 111 % of control.
`C[n+]1c2ccccc2nc2c(N)cc(N)cc21`: the T/C by setting is: under setting [18], 100 % of control; under setting [19], 100 % of control; under setting [8], 91 % of control.
`C[C@H]1C(=O)O[C@@H]2CCN3CC=C(COC(=O)[C@](C)(O)[C@@]1(C)O)[C@H]23`: the T/C is 90 % of control and 100 % of control under setting [20]; 95 % of control under setting [4]; 95 % of control and 100 % of control under setting [5]; 105 % of control and 109 % of control under setting [6].
Consider `O=c1cnn(C2OC(CO)C(O)C2O)c(=O)[nH]1` (stereo not drawn), for which the T/C reads like this: (dose: 800.0 mg/kg/injection, schedule: Q01DX010 (ip), vehicle: saline) 120 % of control; (dose: 1600.0 mg/kg/injection, schedule: Q01DX010 (ip), vehicle: saline) 110 % of control.
As for `O[C@H](CN1CC1)[C@@H](O)CN1CC1`, the T/C was 120 % of control (dose: 62.5 micrograms/kg/injection, schedule: Q01DX010 (ip), vehicle: saline); 200 % of control (dose: 125.0 micrograms/kg/injection, schedule: Q01DX010 (ip), vehicle: saline); 175 % of control (dose: 250.0 micrograms/kg/injection, schedule: Q01DX010 (ip), vehicle: saline); 120 % of control (dose: 500.0 micrograms/kg/injection, schedule: Q01DX010 (ip), vehicle: saline).
Consider `O=P1(N(CCCl)CCCl)NCCCO1` (stereo not drawn), for which the T/C by setting is: (dose: 11.3 mg/kg/injection, schedule: Q01DX005 (ip), vehicle: saline) 100 % of control and 109 % of control; (dose: 11.3 mg/kg/injection, schedule: Q01DX010 (ip), vehicle: saline) 111 % of control; (dose: 22.5 mg/kg/injection, schedule: Q01DX005 (ip), vehicle: saline) 118 % of control and 122 % of control; (dose: 45.0 mg/kg/injection, schedule: Q01DX005 (ip), vehicle: saline) 154 % of control; (dose: 45.0 mg/kg/injection, schedule: Q01DX010 (ip), vehicle: saline) 183 % of control; (dose: 90.0 mg/kg/injection, schedule: Q01DX005 (ip), vehicle: saline) 272 % of control. Also, the T/C by setting is: under setting [9], 105 % of control; (dose: 180.0 mg/kg/injection, schedule: Q01DX010 (ip), vehicle: saline) 88 % of control.
Consider `CCCNc1ncnc2[nH]ncc12`, for which the T/C reads like this: under setting [20], 95 % of control and 105 % of control; under setting [4], 100 % of control; under setting [5], 90 % of control and 94 % of control; under setting [6], 110 % of control; under setting [12], 111 % of control.
For `O=C(Nc1cccc(NC(=O)Nc2cccc(C3=NCCN3)c2)c1)Nc1cccc(C2=NCCN2)c1`, the T/C is, setting by setting: under setting [8], 111 % of control; under setting [2], 111 % of control; (dose: 66.0 mg/kg/injection, schedule: Q01DX010 (ip), vehicle: saline) 111 % of control; under setting [9], 111 % of control.
For `c1ccc(CCSc2ncnc3nc[nH]c23)cc1`, the T/C is, setting by setting: under setting [10], 90 % of control; under setting [11], 90 % of control; under setting [12], 100 % of control; under setting [13], 100 % of control.
For `C[C@]12C=CC(=O)C=C1CC[C@@H]1[C@@H]2[C@@H](O)C[C@@]2(C)[C@H]1CC[C@]2(O)C(=O)CO`, the T/C reads like this: (dose: 12.5 mg/kg/injection, schedule: Q01DX010 (sc), vehicle: steriod suspending solution) 112 % of control; (dose: 25.0 mg/kg/injection, schedule: Q01DX010 (sc), vehicle: steriod suspending solution) 118 % of control; (dose: 50.0 mg/kg/injection, schedule: Q01DX010 (sc), vehicle: steriod suspending solution) 106 % of control; (dose: 100.0 mg/kg/injection, schedule: Q01DX010 (sc), vehicle: steriod suspending solution) 112 % of control.
Take `CC(CCC(C)OS(C)(=O)=O)OS(C)(=O)=O` (stereo not drawn): the T/C by setting is: under setting [14], 90 % of control and 95 % of control; under setting [15], 95 % of control and 100 % of control; under setting [16], 100 % of control; under setting [17], 86 % of control and 100 % of control.
In the case of `CNc1nc(Nc2ccc(C3=NCCN3)cc2)nc(Nc2ccc(C3=NCCN3)cc2)n1`, the T/C is, setting by setting: (dose: 13.3 mg/kg/injection, schedule: Q01DX010 (ip), vehicle: saline) 117 % of control; under setting [1], 111 % of control; (dose: 30.0 mg/kg/injection, schedule: Q01DX010 (ip), vehicle: saline) 117 % of control.
